Source: article PMC9453066, “Targeted control of pneumolysin production by a mobile genetic element in Streptococcus pneumoniae” (Microbial Genomics, 2022)

Test system: ZomB
Conditions: saturating ssDNA (poly(dT)); 1 mM MgCl2, 50 mM NaCl, 2 mM DTT, 20 mM Tris-Cl pH 8.0, 25 °C; 50 nM ZomB

Nc1ncnc2c1ncn2[C@@H]1O[C@H](COP(=O)(O)OP(=O)(O)OP(=O)(O)O)[C@@H](O)[C@H]1O [ATP]
Km: 90 µM
